We go through seven molecules from article PMC7451048 (Drug metabolism letters, 2019).

In series [1] the test system is OATP1B1. As to conditions: cited from earlier work.
Another series has as its target T1, OATP4A1 (Homo sapiens, UniProt Q96BD0).
T1 sequence (Q96BD0 1-722): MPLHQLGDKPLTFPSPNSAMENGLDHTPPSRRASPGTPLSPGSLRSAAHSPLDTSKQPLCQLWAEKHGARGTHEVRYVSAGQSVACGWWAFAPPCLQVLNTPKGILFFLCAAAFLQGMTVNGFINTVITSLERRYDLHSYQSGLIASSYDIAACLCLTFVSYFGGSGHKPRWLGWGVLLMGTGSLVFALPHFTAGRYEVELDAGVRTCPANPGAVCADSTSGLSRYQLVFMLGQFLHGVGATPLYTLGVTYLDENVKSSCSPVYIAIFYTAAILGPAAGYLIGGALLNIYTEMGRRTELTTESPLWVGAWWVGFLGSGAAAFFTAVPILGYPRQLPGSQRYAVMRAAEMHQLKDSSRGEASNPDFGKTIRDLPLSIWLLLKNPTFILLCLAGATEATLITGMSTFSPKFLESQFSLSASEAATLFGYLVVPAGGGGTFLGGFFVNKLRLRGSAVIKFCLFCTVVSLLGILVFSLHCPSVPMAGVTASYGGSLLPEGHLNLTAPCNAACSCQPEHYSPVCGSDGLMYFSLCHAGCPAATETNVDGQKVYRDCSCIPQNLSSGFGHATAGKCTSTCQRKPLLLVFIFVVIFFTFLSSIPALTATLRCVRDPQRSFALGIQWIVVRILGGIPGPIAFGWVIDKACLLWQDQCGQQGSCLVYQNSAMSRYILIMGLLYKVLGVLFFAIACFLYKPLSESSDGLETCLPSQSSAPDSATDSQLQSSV
Briefly: Cellular uptake assay, HEK/OATP4A1 vs HEK empty vector cells. As to conditions: model substrate at 5 μM (Fig. S2).

The target in series [2] is T2, OATP2B1 (Homo sapiens, UniProt O94956).
T2 sequence (O94956 1-709): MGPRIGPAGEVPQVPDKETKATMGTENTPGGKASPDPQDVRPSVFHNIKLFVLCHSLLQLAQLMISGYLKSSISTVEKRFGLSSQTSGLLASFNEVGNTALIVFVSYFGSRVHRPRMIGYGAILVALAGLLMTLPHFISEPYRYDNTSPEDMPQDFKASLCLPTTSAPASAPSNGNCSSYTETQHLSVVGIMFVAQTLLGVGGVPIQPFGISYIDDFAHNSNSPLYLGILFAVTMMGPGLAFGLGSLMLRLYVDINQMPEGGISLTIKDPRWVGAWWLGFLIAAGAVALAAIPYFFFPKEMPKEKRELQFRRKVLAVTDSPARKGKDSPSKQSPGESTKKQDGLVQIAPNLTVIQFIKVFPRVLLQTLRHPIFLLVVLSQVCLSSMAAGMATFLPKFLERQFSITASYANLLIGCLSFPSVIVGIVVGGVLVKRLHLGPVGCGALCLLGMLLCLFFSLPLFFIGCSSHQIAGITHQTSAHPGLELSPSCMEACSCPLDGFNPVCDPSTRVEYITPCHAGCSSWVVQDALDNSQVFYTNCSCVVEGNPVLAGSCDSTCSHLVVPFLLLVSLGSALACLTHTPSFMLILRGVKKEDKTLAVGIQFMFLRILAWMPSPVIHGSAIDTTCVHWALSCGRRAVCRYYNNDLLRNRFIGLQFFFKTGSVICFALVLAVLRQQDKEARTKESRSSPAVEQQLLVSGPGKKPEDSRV
As to conditions: model substrate at 5 μM (Fig. S2).

Series [3] has as its target T3, OATP1B1 (Homo sapiens, UniProt Q9Y6L6).
T3 sequence (Q9Y6L6 1-691): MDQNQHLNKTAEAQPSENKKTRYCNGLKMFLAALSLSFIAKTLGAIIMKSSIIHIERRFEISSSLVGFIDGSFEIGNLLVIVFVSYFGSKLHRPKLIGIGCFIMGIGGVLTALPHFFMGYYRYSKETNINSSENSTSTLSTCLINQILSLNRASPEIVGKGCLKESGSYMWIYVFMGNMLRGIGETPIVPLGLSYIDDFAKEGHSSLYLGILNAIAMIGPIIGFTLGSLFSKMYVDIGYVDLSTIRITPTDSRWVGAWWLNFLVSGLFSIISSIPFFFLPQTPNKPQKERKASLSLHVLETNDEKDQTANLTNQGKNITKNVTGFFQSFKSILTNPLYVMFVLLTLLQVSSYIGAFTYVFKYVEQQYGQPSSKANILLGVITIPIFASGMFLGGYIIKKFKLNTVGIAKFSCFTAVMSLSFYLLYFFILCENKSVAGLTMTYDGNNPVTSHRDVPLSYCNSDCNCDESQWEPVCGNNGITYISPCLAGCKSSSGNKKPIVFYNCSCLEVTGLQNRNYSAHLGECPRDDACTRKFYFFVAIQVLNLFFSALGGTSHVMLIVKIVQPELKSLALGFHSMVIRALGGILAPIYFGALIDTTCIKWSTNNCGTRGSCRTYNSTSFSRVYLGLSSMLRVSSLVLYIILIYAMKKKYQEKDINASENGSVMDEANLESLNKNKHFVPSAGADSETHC
As to conditions: model substrate at 5 μM (Fig. S2).

A further series deals with T4, BCRP (Homo sapiens, UniProt Q9UNQ0).
T4 sequence (Q9UNQ0 1-655): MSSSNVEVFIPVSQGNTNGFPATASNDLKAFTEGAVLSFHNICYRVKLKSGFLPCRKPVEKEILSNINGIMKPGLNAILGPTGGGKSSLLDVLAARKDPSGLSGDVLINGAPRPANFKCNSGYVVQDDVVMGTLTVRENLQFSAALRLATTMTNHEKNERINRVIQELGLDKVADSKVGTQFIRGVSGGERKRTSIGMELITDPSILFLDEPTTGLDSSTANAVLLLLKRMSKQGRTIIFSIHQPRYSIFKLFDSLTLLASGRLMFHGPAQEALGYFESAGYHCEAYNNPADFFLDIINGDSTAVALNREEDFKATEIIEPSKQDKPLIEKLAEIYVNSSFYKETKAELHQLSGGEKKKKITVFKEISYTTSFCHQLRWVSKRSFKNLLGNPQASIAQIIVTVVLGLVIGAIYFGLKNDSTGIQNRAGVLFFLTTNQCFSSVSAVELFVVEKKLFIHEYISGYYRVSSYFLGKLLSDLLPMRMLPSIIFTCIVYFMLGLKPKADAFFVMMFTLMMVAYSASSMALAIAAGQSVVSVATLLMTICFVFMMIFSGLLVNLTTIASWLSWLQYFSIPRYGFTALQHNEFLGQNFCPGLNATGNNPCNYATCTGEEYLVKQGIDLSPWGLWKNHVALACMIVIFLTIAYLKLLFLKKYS
As to the kind of experiment: Plasma membrane vesicle transport assay, BCRP vesicles. In kind it is in vitro ADME. As to conditions: model substrate at 5 μM (Fig. S5).

For another series, the target named is MRP2 (Homo sapiens, UniProt Q92887). As to the kind of experiment: Plasma membrane vesicle transport assay, MRP2 vesicles. As to conditions: model substrate at 5 μM (Fig. S5).
Series [4] has as its target T5, OATP1B3 (Homo sapiens, UniProt Q9NPD5).
T5 sequence (Q9NPD5 1-702): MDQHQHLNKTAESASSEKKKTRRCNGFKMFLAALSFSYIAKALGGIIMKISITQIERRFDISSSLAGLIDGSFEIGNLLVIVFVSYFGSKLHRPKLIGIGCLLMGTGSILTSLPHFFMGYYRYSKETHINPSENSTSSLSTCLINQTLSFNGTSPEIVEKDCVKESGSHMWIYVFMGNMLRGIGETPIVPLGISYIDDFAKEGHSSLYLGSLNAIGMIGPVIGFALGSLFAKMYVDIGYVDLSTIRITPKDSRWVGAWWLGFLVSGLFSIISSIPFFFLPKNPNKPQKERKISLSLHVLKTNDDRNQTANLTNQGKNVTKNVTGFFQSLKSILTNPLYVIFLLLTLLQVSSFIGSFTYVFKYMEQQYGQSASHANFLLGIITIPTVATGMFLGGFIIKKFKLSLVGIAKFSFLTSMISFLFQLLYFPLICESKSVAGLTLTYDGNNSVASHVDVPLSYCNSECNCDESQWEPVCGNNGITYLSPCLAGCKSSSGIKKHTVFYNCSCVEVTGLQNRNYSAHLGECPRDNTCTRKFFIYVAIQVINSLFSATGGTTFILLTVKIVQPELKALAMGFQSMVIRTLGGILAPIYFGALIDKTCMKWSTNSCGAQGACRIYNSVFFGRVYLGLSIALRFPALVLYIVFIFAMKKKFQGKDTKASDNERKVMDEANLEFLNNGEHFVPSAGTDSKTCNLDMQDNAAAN
As to conditions: model substrate at 5 μM (Fig. S2).

The test system of series [5] is OATP1B3. As to conditions: read-out: IC50 for OATP1B3; reported; ref [22], [41]–[43]; cited from earlier work.
The test system of series [6] is OATP2B1. As to conditions: read-out: IC50 for OATP2B1; reported; ref [22], [41]–[43]; cited from earlier work.
A further series addresses T6, OCT1 (Homo sapiens, UniProt O15245).
T6 sequence (O15245 1-554): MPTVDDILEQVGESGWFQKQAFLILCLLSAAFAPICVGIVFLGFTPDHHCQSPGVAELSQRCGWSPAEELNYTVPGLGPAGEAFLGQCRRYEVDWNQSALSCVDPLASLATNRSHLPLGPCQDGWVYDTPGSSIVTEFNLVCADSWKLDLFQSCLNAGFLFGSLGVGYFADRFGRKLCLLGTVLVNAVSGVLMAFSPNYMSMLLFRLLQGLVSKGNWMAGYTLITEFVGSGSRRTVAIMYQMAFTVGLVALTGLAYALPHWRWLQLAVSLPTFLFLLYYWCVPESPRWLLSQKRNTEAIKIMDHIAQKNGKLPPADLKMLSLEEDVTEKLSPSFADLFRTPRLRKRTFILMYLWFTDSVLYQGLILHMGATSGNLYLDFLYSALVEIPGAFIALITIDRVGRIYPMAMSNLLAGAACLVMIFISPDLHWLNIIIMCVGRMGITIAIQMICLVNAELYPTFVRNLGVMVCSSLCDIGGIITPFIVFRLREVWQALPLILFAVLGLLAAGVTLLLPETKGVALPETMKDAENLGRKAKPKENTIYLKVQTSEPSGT
Briefly: Cellular uptake assay, HEK/OCT1 vs HEK empty vector cells. As to conditions: model substrate (Fig. S2).

Another series relates to OAT. As to conditions: read-out: IC50 (OAT inhibitor); reported; ref [44]–[47]; cited from earlier work.
Substrate in series [7]: CC(NC(C)(C)C)C(=O)c1cccc(Cl)c1

The IC50 is the concentration needed to halve the response being measured. For orientation: Km means the concentration of substrate that gives half-maximal velocity.

Chain of MRP2 (Q92887 whole entry): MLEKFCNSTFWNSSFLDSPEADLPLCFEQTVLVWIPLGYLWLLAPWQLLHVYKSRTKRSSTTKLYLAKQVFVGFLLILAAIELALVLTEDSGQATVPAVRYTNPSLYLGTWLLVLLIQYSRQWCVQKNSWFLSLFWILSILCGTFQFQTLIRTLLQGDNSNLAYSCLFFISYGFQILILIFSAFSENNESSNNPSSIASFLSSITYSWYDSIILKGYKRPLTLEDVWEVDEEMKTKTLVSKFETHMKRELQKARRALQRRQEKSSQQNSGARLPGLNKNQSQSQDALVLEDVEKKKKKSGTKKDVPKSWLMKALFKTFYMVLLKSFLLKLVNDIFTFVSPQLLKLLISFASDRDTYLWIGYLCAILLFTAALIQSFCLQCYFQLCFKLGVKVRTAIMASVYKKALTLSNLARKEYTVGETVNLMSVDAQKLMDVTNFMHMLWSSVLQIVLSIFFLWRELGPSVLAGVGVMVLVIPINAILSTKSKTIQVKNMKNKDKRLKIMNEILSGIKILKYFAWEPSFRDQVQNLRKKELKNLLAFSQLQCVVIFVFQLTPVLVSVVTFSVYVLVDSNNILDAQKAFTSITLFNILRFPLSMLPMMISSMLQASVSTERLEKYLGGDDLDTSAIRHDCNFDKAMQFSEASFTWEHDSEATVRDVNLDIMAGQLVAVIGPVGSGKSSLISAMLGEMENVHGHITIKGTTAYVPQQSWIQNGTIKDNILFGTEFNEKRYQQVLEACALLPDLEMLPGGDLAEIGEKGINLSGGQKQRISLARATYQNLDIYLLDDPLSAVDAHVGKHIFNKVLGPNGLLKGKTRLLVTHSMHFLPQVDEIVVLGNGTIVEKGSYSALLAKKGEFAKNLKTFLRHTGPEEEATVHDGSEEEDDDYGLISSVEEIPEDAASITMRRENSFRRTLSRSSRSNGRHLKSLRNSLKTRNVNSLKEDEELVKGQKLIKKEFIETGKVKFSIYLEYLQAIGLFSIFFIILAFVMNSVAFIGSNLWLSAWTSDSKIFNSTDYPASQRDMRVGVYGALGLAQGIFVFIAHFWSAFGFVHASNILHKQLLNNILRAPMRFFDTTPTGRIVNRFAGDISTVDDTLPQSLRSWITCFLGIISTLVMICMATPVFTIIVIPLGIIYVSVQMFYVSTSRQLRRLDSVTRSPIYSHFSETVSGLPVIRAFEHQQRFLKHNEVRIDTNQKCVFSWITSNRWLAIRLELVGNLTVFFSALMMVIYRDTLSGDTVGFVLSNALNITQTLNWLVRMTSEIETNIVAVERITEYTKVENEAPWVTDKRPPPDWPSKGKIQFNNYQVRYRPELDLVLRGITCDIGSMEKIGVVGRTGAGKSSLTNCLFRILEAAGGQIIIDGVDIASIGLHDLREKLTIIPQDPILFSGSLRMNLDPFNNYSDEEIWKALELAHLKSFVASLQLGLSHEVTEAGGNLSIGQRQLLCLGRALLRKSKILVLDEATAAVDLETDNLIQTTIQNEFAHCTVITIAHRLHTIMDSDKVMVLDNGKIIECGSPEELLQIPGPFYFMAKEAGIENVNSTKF

`COC(=O)[C@H](c1ccccc1Cl)N1CCc2sccc2C1` [Clopidogrel]: in the series on OATP1B1 [1] (ref [26]), the “Inhibition of OATP1B1” value is on record as “effective inhibitor”.
Take `C[C@]12CC[C@@H]3c4ccc(OS(=O)(=O)O)cc4CC[C@H]3[C@@H]1CCC2=O` [E1-3-S, Estrone-3-sulfate, reference compound]: the “Uptake into HEK/OATP4A1 cells relative to HEK vector control cells” value at OATP4A1 is on record as 20 times. The “Uptake into HEK/OATP2B1 cells relative to HEK vector control cells” value on OATP2B1 [2] was 42 times.
Regarding `C[C@]12CC[C@@H]3c4ccc(O)cc4CC[C@H]3[C@@H]1CC[C@@H]2O[C@@H]1O[C@H](C(=O)O)[C@@H](O)[C@H](O)[C@H]1O` [E2-17β-G, estradiol-17β-glucuronide, reference compound], the “Uptake into CHO/OATP1B1 cells relative to CHO wild-type parent cells” value on OATP1B1 [3] was “approximately 6 times”. Further, the “Uptake into BCRP vesicles in the presence of ATP relative to AMP” value on BCRP is listed as 10–100 times. In addition, on MRP2, the “Uptake into MRP2 vesicles in the presence of ATP relative to AMP” value was 10–100 times. The “Uptake into CHO/OATP1B3 cells relative to CHO wild-type parent cells” value at OATP1B3 [4] is recorded as ~2 times.
Consider `CO[C@H]1/C=C/O[C@@]2(C)Oc3c(C)c(O)c4c(O)c(c(/C=N/N5CCN(C)CC5)c(O)c4c3C2=O)NC(=O)/C(C)=C\C=C\[C@H](C)[C@H](O)[C@@H](C)[C@@H](O)[C@@H](C)[C@H](OC(C)=O)[C@@H]1C` [RIF, Rifampin], for which the IC50 was 1500 to 2600 nM with OATP1B3 [5]; 1500 to 3250 nM in the series with OATP1B1 [1] (read-out: IC50 for OATP1B1, reported, ref [22], [41]–[43]); 2100 nM in the series on OATP2B1 [6].
Regarding `C[n+]1ccc(-c2ccccc2)cc1` [[^3H]-MPP^+, reference compound], on OCT1, the “Uptake into OCT1-overexpressing cells relative to vector control cells” value is given as 15 times.
`CCCN(CCC)S(=O)(=O)c1ccc(C(=O)O)cc1` [probenecid]: the IC50 with OAT was 3100 to 7400 nM.

B1: OATP1B1 (Homo sapiens) (protein)
chain: MDQNQHLNKTAEAQPSENKKTRYCNGLKMFLAALSLSFIAKTLGAIIMKSSIIHIERRFEISSSLVGFIDGSFEIGNLLVIVFVSYFGSKLHRPKLIGIGCFIMGIGGVLTALPHFFMGYYRYSKETNINSSENSTSTLSTCLINQILSLNRASPEIVGKGCLKESGSYMWIYVFMGNMLRGIGETPIVPLGLSYIDDFAKEGHSSLYLGILNAIAMIGPIIGFTLGSLFSKMYVDIGYVDLSTIRITPTDSRWVGAWWLNFLVSGLFSIISSIPFFFLPQTPNKPQKERKASLSLHVLETNDEKDQTANLTNQGKNITKNVTGFFQSFKSILTNPLYVMFVLLTLLQVSSYIGAFTYVFKYVEQQYGQPSSKANILLGVITIPIFASGMFLGGYIIKKFKLNTVGIAKFSCFTAVMSLSFYLLYFFILCENKSVAGLTMTYDGNNPVTSHRDVPLSYCNSDCNCDESQWEPVCGNNGITYISPCLAGCKSSSGNKKPIVFYNCSCLEVTGLQNRNYSAHLGECPRDDACTRKFYFFVAIQVLNLFFSALGGTSHVMLIVKIVQPELKSLALGFHSMVIRALGGILAPIYFGALIDTTCIKWSTNNCGTRGSCRTYNSTSFSRVYLGLSSMLRVSSLVLYIILIYAMKKKYQEKDINASENGSVMDEANLESLNKNKHFVPSAGADSETHC
Turning to B1, in [7], the Km is 31 ± 7 µM and the Vmax is 1407±91 pmol/mg protein/min.
